Laboratory results reported in patent US20200405657A1, “TREATMENT OF PAIN USING ALLOSTERIC MODULATOR OF TRPV1” (priority 2019, published 2020).
“Also recorded” adds a separate entry of the source.

Assays:
Assay type in all cases: cell-based
[1] = tested on: HEK wild type cells; experiment: Calcium flux (Fluo-4) in wild-type HEK cells without the TRPV1 construct; conditions: for calcium response to individual cannabinoid: cells without TRPV1
Protocol: (§1) Calcium responses mediated by TRPV1 were tested by calcium assay in the cell culture system. Cells were washed and incubated with 0.2 μM fluo-4 acetoxymethyl ester (“Fluo-4”) for 30 minutes at 37° C. in a standard modified Ringer's solution of the following composition (in mM): NaCl 145, KCl 2.8, CsCl 10, CaCl2 10, MgCl2 2, glucose 10, Hepes.NaOH 10, pH 7.4, 330 mOsm. Cells were transferred to 96-well plates at 50,000 cells/well and stimulated as indicated. Calcium signals were acquired using a Flexstation 3 (Molecular Devices, Sunnydale, USA). Data was analyzed using SoftMax® Pro 5 (Molecular Devices). Where indicated, nominally calcium-free external conditions were achieved by the preparation of 0 mM CaCl2 Ringer solution containing 1 mM EGTA. Where indicated, capsaicin (10 μM) and ionomycin (500 nM) were used as positive controls to induce calcium responses. Capsazepine (10 μM) was used where indicated to specifically antagonize TRPV1-mediated calcium responses. Where indicated, baseline traces (no stimulation, NS) were subtracted. Where indicated, vehicle alone traces were subtracted. Where indicated, vehicle comprising various diluents matched to corresponding mixtures was used as a negative control.
When wild-type HEK cells without the TRPV1 construct were presented with the same stimulus conditions, calcium fluxes were not observed (FIGS. 5A-5C).

[2] = target: T1, rat TRPV1 (Rattus norvegicus, UniProt O35433); experiment: TRPV1-mediated calcium influx (Fluo-4) in HEK cells inducibly expressing TRPV1; conditions: for calcium flux in response to individual cannabinoid / calcium influx in response to individual terpene: HEK+TRPV1 cells; for calcium flux in response to individual cannabinoid: each cannabinoid applied alone; for calcium influx in response to individual terpene: each terpene applied alone
T1 construct: FLAG; expressed in transfected cells; host or cells: TRex HEK293 (pcDNA6TR), rat TRPV1 cDNA in pcDNA4TO, tetracycline-induced
T1 sequence (O35433 whole entry): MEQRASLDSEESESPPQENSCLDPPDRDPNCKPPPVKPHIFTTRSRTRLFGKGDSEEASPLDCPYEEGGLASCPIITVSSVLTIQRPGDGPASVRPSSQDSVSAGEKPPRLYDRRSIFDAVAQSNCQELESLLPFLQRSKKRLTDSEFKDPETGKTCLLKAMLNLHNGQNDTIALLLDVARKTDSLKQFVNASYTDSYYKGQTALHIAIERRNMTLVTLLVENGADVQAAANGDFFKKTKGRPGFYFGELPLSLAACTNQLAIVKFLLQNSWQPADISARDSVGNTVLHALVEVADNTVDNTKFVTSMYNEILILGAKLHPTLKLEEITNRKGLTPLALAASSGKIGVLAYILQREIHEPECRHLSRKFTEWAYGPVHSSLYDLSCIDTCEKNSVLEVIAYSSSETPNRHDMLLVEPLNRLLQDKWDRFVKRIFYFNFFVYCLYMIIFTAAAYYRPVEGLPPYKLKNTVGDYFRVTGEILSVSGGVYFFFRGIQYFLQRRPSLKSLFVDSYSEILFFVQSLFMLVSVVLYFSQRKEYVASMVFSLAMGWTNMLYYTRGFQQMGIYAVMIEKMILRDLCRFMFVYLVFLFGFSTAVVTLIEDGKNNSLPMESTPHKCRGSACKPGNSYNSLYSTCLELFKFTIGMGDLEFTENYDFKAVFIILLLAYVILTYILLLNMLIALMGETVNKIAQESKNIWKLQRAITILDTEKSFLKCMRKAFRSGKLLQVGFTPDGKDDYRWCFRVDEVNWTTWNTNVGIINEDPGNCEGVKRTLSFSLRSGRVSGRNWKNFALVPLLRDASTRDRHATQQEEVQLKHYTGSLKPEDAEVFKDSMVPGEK
Protocol: The HEK293 cell line was stably transfected with the pcDNA6TR (Invitrogen, CA) plasmid (encoding the tetracycline-sensitive TREx repressor protein), and was maintained in DMEM+10% fetal bovine serum (inactivated at 55° C. for 1 h)+2 mM glutamine in humidified 5% CO2 atmosphere at 37° C. Selection pressure on the TRex 293 cells was maintained by continuous culture in 10 μg/ml Blasticidin (Sigma, St Louis, Mo.).
For production of TRex HEK293 cells with inducible expression of TRPV1, parental cells were electroporated with the rat TRPV1 cDNA in the pcDNA4TO vector and clonal cell lines were selected by limiting dilution in the presence of 400 μg/ml zeocin (Invitrogen, CA). TRPV1 expression was induced using 1 μg/ml tetracycline for 16 h at 37° C.
as §1

[3] = target: TRPV1 (Rattus norvegicus, UniProt O35433); experiment: TRPV1 desensitization over multiple sequential ligand applications (FIG. 13); conditions: Area Under the Curve analysis, calcium assays or electrophysiology
Sequence of TRPV1 (O35433 whole entry): as above

[4] = target: T1, rat TRPV1; experiment: Whole-cell patch clamp in single HEK293 cells overexpressing rat TRPV1; conditions: for outward current: 5 μM myrcene or 1 μM capsaicin; for inward current: average of 6 independent experiments
Protocol: HEK293 cells were kept in sodium-based extracellular Ringer's solution containing 140 mM NaCl, 1 mM CaCl2, 2 mM MgCl2, 2.8 mM KCl, 11 mM glucose, and 10 mM HEPES-NaOH, pH 7.2 and osmolarity 300 mOsmol. The cells' cytosol was perfused with intracellular patch pipette solution containing 140 mM Cs-glutamate, 8 mM NaCl, 1 mM MgCl2, 3 mM MgATP, and 10 mM HEPES-CsOH. The standard internal Ca^2+ concentration was buffered to 180 nM with 4 mM Ca and 10 mM BAPTA. The level of free unbuffered Ca was adjusted using the calculator provided with WebMaxC (http://www.stanford.edu/˜cpatton/webmaxcS.htm). The pH of the final solution was adjusted to pH 7.2 and osmolarity measured at 300 mOsmol.
1 μM capsaicin was used as a positive control for TRPV1 activation. Rapid extracellular solution application and exchange was performed with the SmartSquirt delivery system (Auto-Mate Scientific, San Francisco). The system includes a ValveLink TTL interface between the electronic valves and the EPC-9 amplifier (HEKA, Lambrecht, Germany). This configuration allows for programmable solution changes via the PatchMaster software (HEKA, Lambrecht, Germany).
Patch-clamp experiments were performed in the whole-cell configuration at 21-25° C. Patch pipettes had resistances of 2-3 MΩ. Data was acquired with PatchMaster software controlling an EPC-9 amplifier. Voltage ramps of 50 ms spanning the voltage range from −100 to 100 mV were delivered from a holding potential of 0 mV at a rate of 0.5 Hz over a period of […]. Voltages were corrected for a liquid junction potential of 10 mV. Currents were filtered at 2.9 kHz and digitized at 100 us intervals. Capacitive currents were determined and corrected before each voltage ramp. The development of currents for a given potential was extracted from individual ramp current records by measuring the current amplitudes at voltages of −80 mV and +80 mV. Data were analyzed with FitMaster (HEKA, Lambrecht, Germany), and IgorPro (WaveMetrics, Lake Oswego, Oreg., USA). Where applicable, statistical errors of averaged data are given as mean±s.e.m.

Compound: C=C(C)[C@@H]1CCC(C)=C[C@H]1c1c(O)cc(CCCCC)c(C(=O)O)c1O [cannabidiolic acid, Cannabidiolic Acid]
- calcium response to individual cannabinoid [1]: only minimal or absent
- calcium flux in response to individual cannabinoid [2]: most potent; also recorded: calcium flux was detected

Compound: C=C(C)[C@@H]1CCC(C)=C[C@H]1c1c(O)cc(CCCCC)cc1O [Cannabidiol]
- desensitization of the channel [3]: cause desensitization
- calcium response to individual cannabinoid [1]: only minimal or absent
- calcium flux in response to individual cannabinoid [2]: most potent; also recorded: calcium flux was detected
- Imax of activated current ([4]; 30 μM CBD): up to 5 nA
- Erev of rectifying current ([4]; CBD): ~0 mV
- sensitivity of CBD-induced current ([4]; capsazepine application, washout of CBD): sensitive to both capsazepine and washout

Compound: C=CC(C)(O)CCC=C(C)CCC=C(C)C (stereo not drawn) [Nerolidol, 3,7,11-Trimethyl-1,6,10-dodecatrien-3-ol]
- calcium influx in response to individual terpene [2]: more modest agonist activity; also recorded: activated TRPV1-mediated Ca^2+ influx
- calcium influx in response to individual terpene ([2]; listed as nerolidol): significant calcium flux was detected

Compound: Oc1cc2c(cc1O)CN(C(=S)NCCc1ccc(Cl)cc1)CCC2 [capsazepine, reference compound]
- myrcene-induced calcium flux in response to TRPV1 inhibitor ([2]; cells activated with 3.5 μg/ml myrcene, 10 μM capsazepine): diminished

Compound: CCCCCc1cc(O)c2c(c1)OC(C)(CCC=C(C)C)C=C2 (stereo not drawn) [cannabichromene, Cannabichromene]
- calcium response to individual cannabinoid [1]: only minimal or absent
- calcium flux in response to individual cannabinoid [2]: most potent; also recorded: calcium flux was detected

Compound: C=C(C)[C@@H]1CCC(C)=C[C@H]1c1c(O)cc(CCC)cc1O [cannabidivarin, Cannabidivarin]
- calcium response to individual cannabinoid [1]: only minimal or absent
- calcium flux in response to individual cannabinoid [2]: most potent; also recorded: calcium flux was detected

Compound: C=C/C(C)=C/CC=C(C)C [Ocimene]
- calcium influx in response to individual terpene [2]: not observed

Compound: CC(C)=CCC[C@](C)(O)[C@@H]1CC=C(C)CC1 [Bisabolol, 6-methyl-2-(4-methylcyclohex-3-en-1-yl)hept-5-en-2-ol]
- calcium influx in response to individual terpene [2]: not observed

Compound: C=CC(C)(O)CCC=C(C)C (stereo not drawn) [Linalool, 3,7-dimethyl-1,6-octadien-3-ol]
- calcium influx in response to individual terpene [2]: not observed

Compound: CCCCCc1cc(O)c(C/C=C(\C)CCC=C(C)C)c(O)c1C(=O)O [cannabigerolic acid, Cannabigerolic Acid]
- calcium response to individual cannabinoid [1]: only minimal or absent
- calcium flux in response to individual cannabinoid [2]: most potent; also recorded: calcium flux was detected

Compound: C=CC(=C)CCC=C(C)C [Myrcene, 7-methyl-3-methylideneocta-1,6-diene]
- desensitization of the channel [3]: cause desensitization
- calcium influx, calcium-free medium ([1]; wild-type HEK cells without TRPV1, myrcene 0.43-3.5 μg/ml): not observed or were only minimal
- calcium flux in response to myrcene ([1]; wild-type HEK cells, 3.5-0.43 μg/ml, compared with HEK+TRPV1): much smaller
- calcium-mediated fluorescence, calcium-free medium, high concentration ([2]; 0 mM external calcium + 1 mM EGTA, 3.5 μg/ml): induced such increase
- calcium-mediated fluorescence, calcium-free medium, low concentrations ([2]; 0 mM external calcium + 1 mM EGTA, 0.43, 0.875 and 1.75 μg/ml): did not cause increase
- calcium response to different concentrations of myrcene ([2]; 3.5, 1.75, 0.875 and 0.43 μg/ml): dose-dependent
- calcium influx in response to individual terpene [2]: significant agonist activity
- calcium influx in response to individual terpene ([2]; listed as myrcene): significant calcium flux was detected; also recorded: did not account for 100% of the calcium influx signal
- outward current [4]: lower amplitude than the inward current
- TRPV1 channel state on activation (IV relationship) ([4]; 5 μM myrcene, 1 μM capsaicin): primarily in State 1
- inward current ([4]; 5 μM myrcene, 1 mM Ca): approximately 0.5 nA
- current induced ([4]; 5 μM, 10 μM and 150 μM myrcene): 0.5-2.2 nA
- dose response of current in individual cells ([4]; 5, 10, 150 μM): dose-dependent response
- response to second stimulus Cannabidiol after prior Myrcene saturation ([4]; Myrcene at 0 mM external Ca2+, then Cannabidiol at 1 mM external Ca2+, versus no prior Myrcene): suppressed
- activator strength at TRPV1 ([4]; producing nA currents): strong activator of TRPV1

Compound: COc1cc(CNC(=O)CCCC/C=C/C(C)C)ccc1O [capsaicin, reference compound]
- desensitization of the channel [3]: can cause desensitization
- capsaicin calcium flux ([1]; HEK wild type cells without a construct encoding TRPV1): not detected
- capsaicin-specific calcium flux ([2]; TRPV1-induced HEK cells): capsaicin-specific calcium fluxes
- current induced ([4]; 1 μM capsaicin): 4-10 nA
- inward current ([4]; 1 μM capsaicin after myrcene): approximately 9 nA
- outward current [4]: lower amplitude than the inward current
- TRPV1 channel state on activation (IV relationship) ([4]; 5 μM myrcene, 1 μM capsaicin): dilated state
